Measurements: publication PMC8838583, “Inhibition of Human Monoamine Oxidases A and B by Specialized Metabolites Present in Fresh Common Fruits and Vegetables” (Plants, 2022)
Read-outs that look alike come from different tables or passages of the source.

Tests used:
[1] = molecular target: T1, human MAO-A (Homo sapiens, UniProt P21397); assay: MAO-Glo bioluminescent MAO-A inhibition assay; type: biochemical; settings: Table 1
T1 construct: purchased MilliporeSigma (Milan, Italy); host or cells: baculovirus-infected insect cells (BTI-TN-5B1-4)
T1 sequence (P21397 1-527): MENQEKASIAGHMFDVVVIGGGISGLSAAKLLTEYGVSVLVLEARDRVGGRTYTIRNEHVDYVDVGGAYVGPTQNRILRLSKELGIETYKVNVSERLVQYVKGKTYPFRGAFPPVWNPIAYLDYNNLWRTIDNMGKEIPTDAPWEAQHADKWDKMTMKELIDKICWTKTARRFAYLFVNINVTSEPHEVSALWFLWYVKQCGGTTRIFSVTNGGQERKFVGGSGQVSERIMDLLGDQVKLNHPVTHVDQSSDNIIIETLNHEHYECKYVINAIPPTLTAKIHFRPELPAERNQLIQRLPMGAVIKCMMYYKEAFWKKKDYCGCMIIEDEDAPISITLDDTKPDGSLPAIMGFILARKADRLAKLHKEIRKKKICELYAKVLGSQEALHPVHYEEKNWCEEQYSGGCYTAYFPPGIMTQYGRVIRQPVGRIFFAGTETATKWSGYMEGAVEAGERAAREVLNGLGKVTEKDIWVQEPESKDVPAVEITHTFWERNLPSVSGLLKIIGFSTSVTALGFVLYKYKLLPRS

[2] = molecular target: T2, human MAO-B (Homo sapiens, UniProt P27338); assay: MAO-Glo bioluminescent MAO-B inhibition assay; type: biochemical; settings: for Selectivity of inhibition between MAO-A and MAO-B, in words: comparison of MAO-A and MAO-B IC50 of Table 1
T2 construct: purchased MilliporeSigma (Milan, Italy); host or cells: baculovirus-infected insect cells (BTI-TN-5B1-4)
T2 sequence (P27338 1-520): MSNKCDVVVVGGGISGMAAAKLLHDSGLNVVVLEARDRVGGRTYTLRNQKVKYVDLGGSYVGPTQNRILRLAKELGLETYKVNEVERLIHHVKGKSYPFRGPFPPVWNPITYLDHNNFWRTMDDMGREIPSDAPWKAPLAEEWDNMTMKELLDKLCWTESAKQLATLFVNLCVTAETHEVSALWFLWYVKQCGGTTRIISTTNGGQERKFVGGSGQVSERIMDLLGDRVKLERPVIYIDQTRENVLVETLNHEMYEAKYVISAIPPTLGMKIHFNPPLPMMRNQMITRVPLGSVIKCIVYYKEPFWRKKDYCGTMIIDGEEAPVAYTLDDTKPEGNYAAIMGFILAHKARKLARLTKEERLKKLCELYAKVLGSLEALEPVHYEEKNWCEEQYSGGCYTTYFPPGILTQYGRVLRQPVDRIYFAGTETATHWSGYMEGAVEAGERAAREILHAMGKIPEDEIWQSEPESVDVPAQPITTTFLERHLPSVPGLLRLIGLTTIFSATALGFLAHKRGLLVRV

[3] = parameters: method as in PMID 21370449; settings: after consumption of an apple smoothie; cited from earlier work
[4] = molarity, standard metabolites, read-out: IC50 Value MAO-A M
[5] = Table 1, MAO-Glo, mean of quadruplicate determinations, kiwifruit as mg fruit fresh weight/mL, read-out: IC50 Value MAO-B (mg/mL) (converted)
[6] = Table 1, molarity, standard metabolites, read-out: IC50 Value MAO-B M

Row | Compound | IC50 ([1]; MAO-Glo, mean of quadruplicate determinations, kiwifruit as mg fruit fresh weight/mL, read-out: IC50 Value MAO-A (mg/mL) (converted)) [mM] | IC50 [1, 4] [mM] | IC50 [2, 5] [mM] | IC50 [2, 6] [mM] | IC50 Value MAO-A ([1]; MAO-Glo, mean of quadruplicate determinations, kiwifruit as mg fruit fresh weight/mL) [µg/mL] | IC50 Value MAO-B ([2]; Table 1, MAO-Glo, mean of quadruplicate determinations, kiwifruit as mg fruit fresh weight/mL) [µg/mL] | Selectivity of inhibition between MAO-A and MAO-B, in words [2] | Level detected in ileostomy fluids [3] | IC50 ([1]; IC50 Value MAO-A (mg/mL), MAO-Glo, mean of quadruplicate determinations, kiwifruit as mg fruit fresh weight/mL) [mM] | IC50 ([1]; IC50 Value MAO-A M, molarity, standard metabolites) [mM]
1 | O=C(O)/C=C/c1ccc(O)c(O)c1 [Caffeic acid, caffeic acid] | 2.72 | 2.75 ± 0.126 | 0.444 | 0.439 ± 0.03 |  |  |  |  |  | 
2 | (+)-catechin hydrate |  | 6.46 ± 0.121 |  | 4.03 ± 0.122 | 1880 ± 40 | 1170 ± 40 | inhibited both enzymes similarly |  |  | 
3 | O=C(O)[C@]1(O)C[C@@H](O)[C@@H](O)[C@H](O)C1 [D-(−)-Quinic acid, D-(−)-quinic acid] |  |  | 34.3 | 34.4 ± 1.31 |  |  | selective activity against MAO-B | ~ 70% |  | 
4 | O=c1ccc2cc(O[C@@H]3O[C@H](CO)[C@@H](O)[C@H](O)[C@H]3O)c(O)cc2o1 [Esculin] |  |  | 12 | 12.1 ± 0.372 |  |  | inhibited both enzymes similarly |  | 11.5 | 11.5 ± 0.43
